Assay results from patent publication US9247759B2, “Identification of human T2R receptors that respond to bitter compounds that elicit the bitter taste in compositions, and the use thereof in assays to identify compounds that inhibit (block) bitter taste in compositions and use thereof” (SENOMYX, INC., priority 2007, dated 2016).
Like-named read-outs stand apart in the source and are kept apart here.

Target: hT2R8 (Homo sapiens (Human), UniProt Q9NYW2)
Assay: hT2R8 antagonist high-throughput FLIPR assay, stable cell line with G16g44, agonist andrographolide
Type: cell-based
Text: After a ligand is identified for a particular hT2R, a HEK293 cell line stably expressing both the hT2R and G16gust44 are generated, facilitating future screening assays to identify other ligands that activate the particular hT2R or which modulate (block or enhance) the activation of this hT2R by another bitter ligand such as a bitter compound contained in coffee. This avoids the need for transient transfection.
(§1) To identify antagonists, cell lines stably expressing hT2R8 and hT2R14, respectively, together with the promiscuous chimeric G16g44 protein were generated as described in previous patent applications. A high-throughput assay was established using the stable cell lines and FLIPR (Fluorescent Imaging Plate Reader). An agonist of hT2R8 or hT2R14 was used to activate the receptors up to 70-80% of their respective maximal activity. For hT2R8, the agonist used was andrographolide (200 λM); for hT2R14, it was aristolochic acid (3 μM). To identify antagonists, compounds with diverse chemical structures were added together with the agonist.
as §1, with “hT2R8” for “hT2R8 and hT2R14, respectively,”, “hT2R8” for “hT2R8 or hT2R14”, “(200” for “(200 λM); for hT2R14, it was aristolochic acid (3”

[1] = table after Example 10-97, read-out: hT2R8 IC50
[2] = unit uM, read-out: IC50 on hT2R08 bitter receptor
[3] = read-out: IC50 on hT2R8 bitter receptor
[4] = table after Example 12-37, read-out: hT2R8 IC50

hT2R8, sequence (Q9NYW2 whole entry): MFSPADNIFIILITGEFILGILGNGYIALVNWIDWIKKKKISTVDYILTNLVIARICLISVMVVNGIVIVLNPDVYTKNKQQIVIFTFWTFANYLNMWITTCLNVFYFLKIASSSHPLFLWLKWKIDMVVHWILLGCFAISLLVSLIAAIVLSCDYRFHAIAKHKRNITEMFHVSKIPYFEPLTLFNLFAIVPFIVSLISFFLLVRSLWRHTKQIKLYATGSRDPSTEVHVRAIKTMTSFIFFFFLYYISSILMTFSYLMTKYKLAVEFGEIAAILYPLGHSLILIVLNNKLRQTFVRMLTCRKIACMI

| Compound | IC50 [1] [µM] | IC50 [3] [µM] | IC50 (Table A, read-out: hT2R8 IC50) [µM] | also measured |
| --- | --- | --- | --- | --- |
| Cc1noc(C)c1Cn1cc(N2C(=O)CN(Cc3ccn(C)n3)C2=O)cn1 [Example 10-38, 3-(1-((3,5-dimethylisoxazol-4-yl)methyl)-1H-pyrazol-4-yl)-1-((1-methyl-1H-pyrazol-3-yl)methyl)imidazolidine-2,4-dione] | 0.363 |  |  | IC50 [2]: 0.4 µM |
| Cc1noc(C)c1Cn1cc(N2C(=O)NC(COCc3ccccc3)C2=O)cn1 (centres unmarked) [Example 10-47, 5-(benzyloxymethyl)-3-(1-((3,5-dimethylisoxazol-4-yl)methyl)-1H-pyrazol-4-yl)imidazolidine-2,4-dione] | 0.766 | 0.76 |  |  |
| Cc1noc(C)c1Cn1cc(NS(=O)(=O)c2ccccc2C#N)cn1 [Example 4-99, 2-cyano-N-(1-((3,5-dimethylisoxazol-4-yl)methyl)-1H-pyrazol-4-yl)benzenesulfonamide] |  |  | 1.36 |  |
| COc1cccc(CC(=O)Nc2cnn(Cc3c(C)noc3C)c2)c1OC [Example 4-31, 2-(2,3-dimethoxyphenyl)-N-(1-((3,5-dimethylisoxazol-4-yl)methyl)-1H-pyrazol-4-yl)acetamide] |  |  | 0.8 |  |
| 1-((1,3-dimethyl-1H-pyrazol-4-yl)methyl)-3-(1-((3,5-dimethylisoxazol-4-yl)methyl)-1H-pyrazol-4-yl) imidazolidine-2,4-dione [Example 10-90] | 0.215 |  |  |  |
| Cc1noc(C)c1Cn1cc(N2C(=O)N(Cc3ccc(F)cc3F)C(C)(C)C2=O)cn1 [Example 12-74, 1-(2,4-difluorobenzyl)-3-(1-((3,5-dimethylisoxazol-4-yl)methyl)-1H-pyrazol-4-yl)-5,5-dimethylimidazolidine-2,4-dione] |  |  |  | IC50 [4]: 0.53 µM |
| Cc1noc(C)c1Cn1cc(N2C(=O)N(CCO)C(C)(C)C2=O)cn1 [Example 12-77, 3-(1-((3,5-dimethylisoxazol-4-yl)methyl)-1H-pyrazol-4-yl)-1-(2-hydroxyethyl)-5,5-dimethylimidazolidine-2,4-dione] |  |  |  | IC50 [4]: 0.56 µM |
| Cc1noc(C)c1Cn1cc(N2C(=O)NC(CCc3ccccc3)C2=O)cn1 (centres unmarked) [Example 10-45, 3-(1-((3,5-dimethylisoxazol-4-yl)methyl)-1H-pyrazol-4-yl)-5-phenethylimidazolidine-2,4-dione] | 0.793 | 0.22 |  |  |
| Cc1noc(C)c1Cn1cc(N2C(=O)N(CCc3ccccc3)C(C)(C)C2=O)cn1 [Example 12-56, 3-(1-((3,5-dimethylisoxazol-4-yl)methyl)-1H-pyrazol-4-yl)-5,5-dimethyl-1-phenethylimidazolidine-2,4-dione] |  |  |  | IC50 [4]: 0.23 µM |
| Cc1noc(C)c1Cn1cc(-n2c(=O)[nH]c3ccccc3c2=O)cn1 [Example 9-4, 3-(1-((3,5-dimethylisoxazol-4-yl)methyl)-1H-pyrazol-4-yl)quinazoline-2,4(1H,3H)-dione] |  | 1.5 |  |  |
| Cc1noc(C)c1Cn1cc(N(C)C(=O)[C@@H](C)c2ccccc2)cn1 [Example 4-98, (S)-N-(1-((3,5-dimethylisoxazol-4-yl)methyl)-1H-pyrazol-4-yl)-N-methyl-2-phenylpropanamide] |  |  | 2.81 |  |
| Cc1noc(C)c1Cn1cc(N2C(=O)CN(CCc3ccccc3F)C2=O)cn1 [Example 10-83, 3-(1-((3,5-dimethylisoxazol-4-yl)methyl)-1H-pyrazol-4-yl)-1-(2-fluorophenethyl)imidazolidine-2,4-dione] | 0.442 | 0.13 |  |  |
| COc1cccc(CN(Cc2cccc(OC)c2OC)c2cnn(Cc3c(C)noc3C)c2)c1OC [Example 4-64, N,N-bis(2,3-dimethoxybenzyl)-1-((3,5-dimethylisoxazol-4-yl)methyl)-1H-pyrazol-4-amine] |  |  | 12.6 |  |
| Cc1noc(C)c1Cn1cc(NC(=O)c2ccc3occc3c2)cn1 [Example 4-77, N-(1-((3,5-dimethylisoxazol-4-yl)methyl)-1H-pyrazol-4-yl)benzofuran-5-carboxamide] |  |  | 1.4 |  |
| COc1ccccc1CN1C(=O)N(c2cnn(Cc3c(C)noc3C)c2)C(=O)C1(C)C [Example 12-31, 3-(1-((3,5-dimethylisoxazol-4-yl)methyl)-1H-pyrazol-4-yl)-1-(2-methoxybenzyl)-5,5-dimethylimidazolidine-2,4-dione] |  | 0.08 |  |  |
| CCCCn1c(=O)n(-c2cnn(Cc3c(C)noc3C)c2)c(=O)n1Cc1ccccc1 [Example 10-95] | 0.409 | 0.41 |  |  |
| Cc1noc(C)c1Cn1cc(N2C(=O)CN(Cc3cccc(C(=O)O)c3)C2=O)cn1 [Example 10-8, 3-((3-(1-((3,5-dimethylisoxazol-4-yl)methyl)-1H-pyrazol-4-yl)-2,4-dioxoimidazolidin-1-yl)methyl)benzoic acid] | 1.8 | 1.8 |  |  |

| Compound | IC50 [1] [µM] | IC50 [3] [µM] | IC50 (Table A, read-out: hT2R8 IC50) [µM] | also measured |
| --- | --- | --- | --- | --- |
| Cc1noc(C)c1Cn1cc(NC(=S)Nc2cccc(C#N)c2)cn1 [Example 4-109, 1-(3-cyanophenyl)-3-(1-((3,5-dimethylisoxazol-4-yl)methyl)-1H-pyrazol-4-yl)thiourea] |  |  | 0.783 |  |
| Cc1noc(C)c1Cn1cc(NC(=O)C(c2ccccc2)c2ccccc2)cn1 [Example 4-44, N-(1-((3,5-dimethylisoxazol-4-yl)methyl)-1H-pyrazol-4-yl)-2,2-diphenylacetamide] |  |  | 5.19 |  |
| Cc1noc(C)c1Cn1cc(N2C(=O)N(Cc3c(F)cccc3F)C(C)(C)C2=O)cn1 [Example 12-44, 1-(2,6-difluorobenzyl)-3-(1-((3,5-dimethylisoxazol-4-yl)methyl)-1H-pyrazol-4-yl)-5,5-dimethylimidazolidine-2,4-dione] |  |  |  | IC50 [4]: 0.1 µM |
| COc1ccc(CN2C(=O)N(c3cnn(Cc4c(C)noc4C)c3)C(=O)C23CC3)cc1O [Example 12-12, 6-(1-((3,5-dimethylisoxazol-4-yl)methyl)-1H-pyrazol-4-yl)-4-(3-hydroxy-4-methoxybenzyl)-4,6-diazaspiro[2.4]heptane-5,7-dione] |  | 0.02 |  |  |
| COc1ccccc1CN1CC(=O)N(c2cnn(Cc3c(C)noc3C)c2)C1=O [Example 10-18, 3-(1-((3,5-dimethylisoxazol-4-yl)methyl)-1H-pyrazol-4-yl)-1-(2-methoxybenzyl)imidazolidine-2,4-dione] | 0.06 |  |  | IC50 [2]: 0.06 µM |
| COc1cccc(CC2NC(=O)N(c3cnn(Cc4c(C)noc4C)c3)C2=O)c1 (centres unmarked) [Example 10-56, 3-(1-((3,5-dimethylisoxazol-4-yl)methyl)-1H-pyrazol-4-yl)-5-(3-methoxybenzyl)imidazolidine-2,4-dione] | 0.131 | 0.13 |  |  |
| Cc1noc(C)c1Cn1cc(N2C(=O)N(CCCc3ccccc3)C(C)(C)C2=O)cn1 [Example 12-78, 3-(1-((3,5-dimethylisoxazol-4-yl)methyl)-1H-pyrazol-4-yl)-5,5-dimethyl-1-(3-phenylpropyl)imidazolidine-2,4-dione] |  |  |  | IC50 [4]: 0.58 µM |
| Cc1noc(C)c1Cn1cc(N2C(=O)CN(CCc3ccccc3Cl)C2=O)cn1 [Example 10-81, 1-(2-chlorophenethyl)-3-(1-((3,5-dimethylisoxazol-4-yl)methyl)-1H-pyrazol-4-yl)imidazolidine-2,4-dione] | 0.248 | 0.25 |  |  |
| Cc1noc(C)c1Cn1cc(NC(=O)c2ccc(F)cc2)cn1 [Example 4-23, N-(1-((3,5-dimethylisoxazol-4-yl)methyl)-1H-pyrazol-4-yl)-4-fluorobenzamide] |  |  | 1.56 |  |
| Cc1noc(C)c1Cn1cc(NC(=O)c2cccnc2)cn1 [Example 4-46, N-(1-((3,5-dimethylisoxazol-4-yl)methyl)-1H-pyrazol-4-yl)nicotinamide] |  |  | 1.05 |  |
| Cc1cc(C(=O)Nc2cnn(Cc3c(C)noc3C)c2)n(C)n1 [Example 4-52, N-(1-((3,5-dimethylisoxazol-4-yl)methyl)-1H-pyrazol-4-yl)-1,3-dimethyl-1H-pyrazole-5-carboxamide] |  |  | 18.1 |  |
| Cc1cccc(CN2C(=O)N(c3cnn(Cc4c(C)noc4C)c3)C(=O)C2(C)C)c1F [Example 12-82, 3-(1-((3,5-dimethylisoxazol-4-yl)methyl)-1H-pyrazol-4-yl)-1-(2-fluoro-3-methylbenzyl)-5,5-dimethylimidazolidine-2,4-dione] |  |  |  | IC50 [4]: 0.81 µM |
| Cc1noc(C)c1Cn1cc(N2C(=O)N(Cc3ccc(C#N)cc3)C(C)(C)C2=O)cn1 [Example 12-16, 4-((3-(1-((3,5-dimethylisoxazol-4-yl)methyl)-1H-pyrazol-4-yl)-5,5-dimethyl-2,4-dioxoimidazolidin-1-yl)methyl)benzonitrile] |  | 0.04 |  |  |
| Cc1noc(C)c1Cn1cc(N2C(=O)CN(Cc3ccccc3[S+](C)[O-])C2=O)cn1 (centres unmarked) [Example 10-17, 33-(1-((3,5-dimethylisoxazol-4-yl)methyl)-1H-pyrazol-4-yl)-1-(2-(methylsulfinyl)benzyl)imidazolidine-2,4-dione] | 0.412 |  |  | IC50 [2]: 0.4 µM |
| Cc1noc(C)c1Cn1cc(N2C(=O)CN(Cc3ccccc3)C2=O)cn1 [Example 10-53, 1-benzyl-3-(1-((3,5-dimethylisoxazol-4-yl)methyl)-1H-pyrazol-4-yl)imidazolidine-2,4-dione] | 0.257 | 0.09 |  |  |
| Cc1noc(C)c1Cn1cc(-n2c(=O)n(C)n(CCOc3ccccc3)c2=O)cn1 [Example 10-67, 4-(1-((3,5-dimethylisoxazol-4-yl)methyl)-1H-pyrazol-4-yl)-1-methyl-2-(2-phenoxyethyl)-1,2,4-triazolidine-3,5-dione] |  | 0.031 |  |  |
